Test results taken from patent US20150183781A1, “5-(1H-Pyrazol-4-yl)-1H-Pyrrolo[2,3-b]Pyridine Derivatives as Kinase Inhibitors” (AURIGENE DISCOVERY TECHNOLOGIES LIMITED, priority 2012, published 2015).
Where a name gives a salt, the structure may show the parent alone.

Biological target: T1, recombinant human ALK enzyme (Homo sapiens, UniProt Q9UM73)
T1 construct: purchased Carna Biosciences 08-518
Experiment: ALK WT cell free assay (TR-FRET)
Format: biochemical
Conditions: 1 μM ATP; for IC50: 10 point dose response, read-out: IC50 value (in range); for inhibition at 0.1 µM: compound 100 nM, read-out: Percentage Inhibition 100 nM; for inhibition at 0.1 µM / inhibition at 1 µM: 30 min pre-incubation; for inhibition at 1 µM: compound 1 μM, read-out: Percentage Inhibition 1 μM
Experimental: The ALK WT cell free assay was set up to evaluate the effects of these compounds as inhibitors of ALK enzyme. The enzymatic assay was standardized using recombinant human ALK enzyme (Cat#08-518) from Carna Biosciences using Ultra Light Poly GT (Cat# TRF […]) from Perkin Elmer as a substrate. TR-FRET (Time resolved fluorescence resonance energy transfer) detection technology was used for the read out. […] The assay reaction time with the substrate was 30 minutes after which the antibody detection mix is added. The TR-FRET signal (Excitation at 340 nm, Emission at 615 nm and 665 nm) was read with 50 μs delay time on Victor^3 V fluorimeter. The data is calculated using the ratio of reading at 665 nm to 615 nm. […] Compounds were screened at 100 nM and 1 μM concentrations with pre-incubation of the enzymes with compound for 30 minutes.

T1 sequence (Q9UM73 1058-1620 limits assumed): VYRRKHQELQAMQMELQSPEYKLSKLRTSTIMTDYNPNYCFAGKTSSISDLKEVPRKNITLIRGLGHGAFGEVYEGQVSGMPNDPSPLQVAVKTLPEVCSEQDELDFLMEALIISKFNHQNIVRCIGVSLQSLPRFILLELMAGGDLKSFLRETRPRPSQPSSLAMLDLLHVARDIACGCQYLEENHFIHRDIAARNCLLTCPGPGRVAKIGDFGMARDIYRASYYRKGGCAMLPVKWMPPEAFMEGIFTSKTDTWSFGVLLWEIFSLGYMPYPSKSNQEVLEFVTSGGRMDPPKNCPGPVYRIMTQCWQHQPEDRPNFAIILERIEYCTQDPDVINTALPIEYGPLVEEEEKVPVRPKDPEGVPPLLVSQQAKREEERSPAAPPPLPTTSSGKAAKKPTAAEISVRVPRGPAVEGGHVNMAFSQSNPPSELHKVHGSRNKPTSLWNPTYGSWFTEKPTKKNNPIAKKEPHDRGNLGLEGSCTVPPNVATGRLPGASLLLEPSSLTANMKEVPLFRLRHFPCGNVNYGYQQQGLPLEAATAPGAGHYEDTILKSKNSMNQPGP

| IC50 | inhibition at 0.1 µM | inhibition at 1 µM | Structure (SMILES) |
| --- | --- | --- | --- |
| < 50 nM | 80% | 94% | Fc1cccc(Cn2cc(-c3c[nH]c4ncc(-c5cnn(C6CCNCC6)c5)cc34)cn2)c1 [Example-23] |
| < 50 nM |  | 98% | Cn1cc(-c2cnc3[nH]cc(-c4cnn(Cc5cc(F)ccc5F)c4)c3c2)cn1 [Example-10] |
| 50 to 200 nM |  | 95% | Cn1cc(-c2cnc3[nH]cc(-c4cnn(Cc5ccccc5F)c4)c3c2)cn1 [Example-1, 3-(1-(2-fluorobenzyl)-1H-pyrazol-4-yl)-5-(1-methyl-1H-pyrazol-4-yl)-1H-pyrrolo[2,3-b]pyridine] |
|  |  | 42% | COC(=O)c1cccc(Cn2cc(-c3c[nH]c4ncc(-c5cnn(C)c5)cc34)cn2)c1 [Example-6] |
| 50 to 200 nM | 49% | 92% | Cn1cc(-c2cnc3[nH]cc(-c4cnn(Cc5cccc([N+](=O)[O-])c5)c4)c3c2)cn1 [Example-16, 5-(1-methyl-1H-pyrazol-4-yl)-3-(1-(3-nitrobenzyl)-1H-pyrazol-4-yl)-1H-pyrrolo[2,3-b]pyridine] |
|  |  | 90% | Cn1cc(-c2cnc3[nH]cc(-c4cnn(Cc5cccc(N)c5)c4)c3c2)cn1 [Example-21, 3-((4-(5-(1-methyl-1H-pyrazol-4-yl)-1H-pyrrolo[2,3-b]pyridin-3-yl)-1H-pyrazol-1-yl)methyl)aniline] |
| < 50 nM | 88% | 99% | OCCCn1cc(-c2cnc3[nH]cc(-c4cnn(Cc5cccc(F)c5)c4)c3c2)cn1 [Example-30] |
| < 50 nM |  | 100% | Cn1cc(-c2cnc3[nH]cc(-c4cnn(Cc5cc(F)cc(F)c5)c4)c3c2)cn1 [Example-14] |
| < 50 nM | 96% | 98% | OCCn1cc(-c2cnc3[nH]cc(-c4cnn(Cc5cccc(F)c5)c4)c3c2)cn1 [Example-28, 2-(4-(3-(1-(3-fluorobenzyl)-1H-pyrazol-4-yl)-1H-pyrrolo[2,3-b]pyridin-5-yl)-1H-pyrazol-1-yl)ethanol] |
| < 50 nM |  | 96% | Cn1cc(-c2cnc3[nH]cc(-c4cnn(Cc5cccc(Cl)c5)c4)c3c2)cn1 [Example-13] |
| 50 to 200 nM |  | 98% | Cn1cc(-c2cnc3[nH]cc(-c4cnn(Cc5ccccc5)c4)c3c2)cn1 [Example-8] |
| < 50 nM |  | 100% | Cn1cc(-c2cnc3[nH]cc(-c4cnn(Cc5cccc(F)c5)c4)c3c2)cn1 [Example-3] |
| < 50 nM | 81% | 99% | Cn1cc(-c2cnc3[nH]cc(-c4cnn(Cc5cccc(O)c5)c4)c3c2)cn1 [Example-20] |
| > 200 nM |  | 77% | Cn1cc(-c2cnc3[nH]cc(-c4cnn(Cc5cccc(C(F)(F)F)c5)c4)c3c2)cn1 [Example-11] |
| < 50 nM |  | 95% | Cn1cc(-c2cnc3[nH]cc(-c4cnn(Cc5cccc(C#N)c5)c4)c3c2)cn1 [Example-5] |
| 50 to 200 nM | 53% | 92% | Cn1cc(-c2cnc3[nH]cc(-c4cnn(CCc5ccccc5)c4)c3c2)cn1 [Example-20A] |
|  | 6% | 6% | Cn1cc(-c2cnc3[nH]cc(-c4cn(Cc5cccc(F)c5)nc4C(C)(C)C)c3c2)cn1 [Example-15] |
| 50 to 200 nM |  | 93% | Cn1cc(-c2cnc3[nH]cc(-c4cnn(Cc5ccc(F)cc5)c4)c3c2)cn1 [Example-4] |

The next lines start with the compound.

| Structure (SMILES) | IC50 | inhibition at 0.1 µM | inhibition at 1 µM |
| --- | --- | --- | --- |
| Fc1cc(F)cc(Cn2cc(-c3c[nH]c4ncc(-c5cnn(C6CCNCC6)c5)cc34)cn2)c1 [Example-22, 3-(1-(3,5-difluorobenzyl)-1H-pyrazol-4-yl)-5-(1-(piperidin-4-yl)-1H-pyrazol-4yl)-1H-pyrrolo[2,3-b]pyridinehydrochloride] | < 50 nM | 97% | 100% |
| c1ccc(CCn2cc(-c3c[nH]c4ncc(-c5cnn(C6CCNCC6)c5)cc34)cn2)cc1 [Example-31, 3-(1-phenethyl-1H-pyrazol-4-yl)-5-(1-(piperidin-4-yl)-1H-pyrazol-4-yl)-1H-pyrrolo[2,3-b]pyridine] | 50 to 200 nM | 59% | 95% |
| Cc1nn(Cc2cccc(F)c2)cc1-c1c[nH]c2ncc(-c3cnn(C4CCNCC4)c3)cc12 [Example-26] | < 50 nM | 79% | 96% |
| Cn1cc(-c2cnc3[nH]cc(-c4cn(Cc5cccc(F)c5)nc4C(F)(F)F)c3c2)cn1 [Example-17] | 50 to 200 nM | 62% | 89% |
| Cc1nn(Cc2cccc(O)c2)c(C)c1-c1c[nH]c2ncc(-c3cnn(C4CCNCC4)c3)cc12 [Example-25] | 50 to 200 nM | 70% | 95% |
| Cc1nn(Cc2cccc(F)c2)c(C)c1-c1c[nH]c2ncc(-c3cnn(CCO)c3)cc12 [Example-29] | < 50 nM | 73% | 100% |
| Cc1nn(Cc2cc(Cl)ccc2F)cc1-c1c[nH]c2ncc(-c3cnn(C)c3)cc12 [Example-7] | > 200 nM | 45% | 93% |
| Cc1nn(Cc2cc(F)cc(F)c2)c(C)c1-c1c[nH]c2ncc(-c3cnn(C)c3)cc12 [Example-19] | < 50 nM | 80% | 96% |
| Cn1cc(-c2cnc3[nH]cc(-c4cnn(Cc5ccc(C(C)(C)C)cc5)c4)c3c2)cn1 [Example-9, 3-(1-(4-(tert-butyl)benzyl)-1H-pyrazol-4-yl)-5-(1-methyl-1H-pyrazol-4-yl)-1H-pyrrolo[2,3-b]pyridine] |  |  | 21% |
| Cc1nn(Cc2cccc(F)c2)c(C)c1-c1c[nH]c2ncc(-c3cnn(C4CCNCC4)c3)cc12 [Example-24] | < 50 nM | 76% | 94% |
| Cc1c(-c2c[nH]c3ncc(-c4cnn(C5CCNCC5)c4)cc23)cnn1Cc1cccc(F)c1 [Example-27] | < 50 nM | 79% | 98% |
| C[C@H](O)CN1CCC(n2cc(-c3cnc4[nH]cc(-c5cnn(Cc6cccc(F)c6)c5)c4c3)cn2)CC1 [Example-32, (S)-1-(4-(4-(3-(1-(3-fluorobenzyl)-1H-pyrazol-4-yl)-1H-pyrrolo[2,3-b]pyridin-5-yl)-1H-pyrazol-1-yl)piperidin-1-yl)propan-2-ol] | < 50 nM | 90% | 99% |
| Cc1nn(Cc2cccc(F)c2)c(C)c1-c1c[nH]c2ncc(-c3cnn(C)c3)cc12 [Example-18] | < 50 nM | 79% | 96% |
